In ChEMBL document CHEMBL1667742, “Angiotensin II receptor type 1 (AT1) selective nonpeptidic antagonists--a perspective” (Bioorg Med Chem, 2010):
Substitutions are numbered along the chain they refer to.

Legend:
[1] = target: T1, Type-2 angiotensin II receptor (Homo sapiens, UniProt P50052); test: Binding affinity to angiotensin AT2 receptor
T1 sequence (P50052 whole entry): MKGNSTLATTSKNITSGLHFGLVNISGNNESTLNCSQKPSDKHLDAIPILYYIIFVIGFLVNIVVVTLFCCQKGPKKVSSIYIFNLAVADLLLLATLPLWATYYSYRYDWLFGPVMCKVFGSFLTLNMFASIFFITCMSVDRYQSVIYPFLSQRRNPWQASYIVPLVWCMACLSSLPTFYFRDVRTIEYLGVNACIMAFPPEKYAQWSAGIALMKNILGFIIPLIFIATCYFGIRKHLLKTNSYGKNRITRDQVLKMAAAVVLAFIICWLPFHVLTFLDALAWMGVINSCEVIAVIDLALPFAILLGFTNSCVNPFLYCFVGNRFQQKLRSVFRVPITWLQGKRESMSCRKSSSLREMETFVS

[2] = Antagonist activity at angiotensin AT1 receptor in rat liver membranes; type: functional, cell membranes, Membrane
[3] = target: T2, Type-1 angiotensin II receptor (Bos taurus) (UniProt P25104); test: Binding affinity to angiotensin AT1 receptor in bovine adrenal cortex membranes; type: cell membranes; conditions: Membrane
T2 sequence (whole entry): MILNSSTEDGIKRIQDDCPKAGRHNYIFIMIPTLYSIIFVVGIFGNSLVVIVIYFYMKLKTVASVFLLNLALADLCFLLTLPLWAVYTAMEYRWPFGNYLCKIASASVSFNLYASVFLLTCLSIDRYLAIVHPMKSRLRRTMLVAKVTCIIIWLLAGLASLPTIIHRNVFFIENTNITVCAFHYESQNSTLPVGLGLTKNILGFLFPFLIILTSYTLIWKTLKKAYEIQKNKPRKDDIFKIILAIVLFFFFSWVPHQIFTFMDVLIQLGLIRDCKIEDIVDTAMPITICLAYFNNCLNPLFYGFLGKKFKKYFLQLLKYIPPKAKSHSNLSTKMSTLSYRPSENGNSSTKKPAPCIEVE

Rattus norvegicus [4] = test: Antihypertensive activity in po dosed conscious rat; type: functional; conditions: read-out: ID50 (the source's name)
[5] = Binding affinity to angiotensin AT1 receptor in rat liver membranes; type: cell membranes, Membrane
[6] = Selectivity ratio of IC50 for angiotensin AT1 receptor to IC50 for angiotensin AT2 receptor
[7] = target: T3, Type-1 angiotensin II receptor (Oryctolagus cuniculus, UniProt P34976); test: (§1) Antagonist activity at angiotensin AT1 receptor in rabbit aorta; type: functional, tissue-based; conditions: read-out: pA2 (converted)
T3 sequence (P34976 whole entry): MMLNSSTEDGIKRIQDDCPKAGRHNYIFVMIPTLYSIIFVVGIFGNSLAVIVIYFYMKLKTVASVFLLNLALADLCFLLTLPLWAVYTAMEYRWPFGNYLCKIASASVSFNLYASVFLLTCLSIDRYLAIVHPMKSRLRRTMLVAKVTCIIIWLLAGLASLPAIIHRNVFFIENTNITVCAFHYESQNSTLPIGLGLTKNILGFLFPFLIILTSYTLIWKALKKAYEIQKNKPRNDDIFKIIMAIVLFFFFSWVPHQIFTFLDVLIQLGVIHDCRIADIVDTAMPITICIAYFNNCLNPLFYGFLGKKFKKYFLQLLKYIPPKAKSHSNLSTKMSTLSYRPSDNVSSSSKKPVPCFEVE

[8] = target: T4, Type-1 angiotensin II receptor (Homo sapiens, UniProt P30556); test: Binding affinity to angiotensin AT1 receptor
T4 sequence (P30556 whole entry): T3 sequence (P34976 whole entry) with M2I, A49V, V254I, V270I, H272R, K311R, S349T, V353A

[9] = Displacement of radiolabeled angiotensin2 from angiotensin AT1 receptor in rat adrenal cortex membranes; type: cell membranes, Membrane
[10] = Binding affinity to angiotensin AT1 receptor in rat adrenal cortical membranes; type: cell membranes
[11] = target: T5, Type-1 angiotensin II receptor (Oryctolagus cuniculus) (UniProt P34976); test: as §1; type: functional, tissue-based
T5 sequence (whole entry): T3 sequence (P34976 whole entry)

[12] = target: T4, Type-1 angiotensin II receptor; test: Antagonist activity at angiotensin AT1 receptor; type: functional; conditions: for Kb: read-out: pA2 (converted)
[13] = target: T3, Type-1 angiotensin II receptor; test: Binding affinity to angiotensin AT1 receptor in rabbit aortic rings
[14] = Antagonist activity at angiotensin AT1 receptor in rat aorta; type: functional, tissue-based
[15] = target: T3, Type-1 angiotensin II receptor; test: Antagonist activity at angiotensin AT1 receptor in rabbit aorta assessed as reduction of angiotensin 2-induced contractile response; type: functional, tissue-based; conditions: read-out: pA2 (converted)
Rattus norvegicus [16] = test: Ratio of compound ED50 to losartan ED50 for po dosed renal hypertensive rat model; type: functional
[17] = Antagonist activity at angiotensin AT1 receptor in rat adrenal cortical membranes; type: functional, cell membranes
[18] = target: T3, Type-1 angiotensin II receptor; test: Antagonist activity at angiotensin AT1 receptor in rabbit aortic strip assessed as inhibition of angiotensin 2-induced contractile response; type: functional
[19] = Oral bioavailability in rat; type: ADME, organism-based; conditions: in vivo

SMILES: CCCCc1nc(Cl)c2n1C(c1ccc(-c3ccccc3-c3nnn[nH]3)cc1)CC(C(=O)O)=C2 (stereo not drawn)
- IC50 [1]: 10 nM

SMILES: Cc1nc(Sc2ccc(-c3ccccc3-c3nn[nH]n3)cc2)c2ccccc2n1
- IC50 [2]: 350 nM

SMILES: CCOc1nc2cccc(C(=O)O)c2n1Cc1ccc(-c2ccccc2-c2noc(=O)[nH]2)cc1 [AZILSARTAN]
- Activity [3]: 4.2 nM
- ED50 (Rattus norvegicus [4]): 0.04 mg/kg

SMILES: CCc1nc2c(C)cc(C)nc2n1Cc1ccc(-c2c(-c3nn[nH]n3)cnc3ccccc23)cc1
- IC50 [5]: 0.4 nM

SMILES: CCc1nc2ccc(N(Cc3ccccc3)C(=O)c3cccs3)cc2c(=O)n1Cc1ccc(-c2ccccc2-c2nn[nH]n2)cc1
- Ratio IC50 [6]: 3000

SMILES: CCCc1nc2c(n1Cc1ccc(-c3ccccc3-c3nnn[nH]3)cc1)C(=O)CCCC2 [PRATOSARTAN]
- Kb [7]: 0.0912 nM

SMILES: CCc1cc(OCc2ccc(-c3ccccc3-c3nnn[nH]3)cc2)c2c(n1)CCCC2
- Kb [7]: 0.0501 nM

SMILES: CCCCc1nnc(SCc2ccccc2C(=O)O)n1Cc1ccc(-c2ccccc2-c2nn[nH]n2)cc1
- IC50 [8]: 1.4 nM

SMILES: CCCc1nc(CC)c(C=O)n1Cc1ccc(-c2ccccc2-c2nn[nH]n2)cc1
- IC50 [9]: 2.1 nM

SMILES: CCCSC1=NS(=O)(=O)c2ccc(C(=O)O)cc2N1Cc1ccc(-c2ccccc2-c2nn[nH]n2)cc1
- Ki [10]: 8.5 nM
- Kb [11]: 0.08 nM

SMILES: CCCCc1cn(CCCC)c(=O)n1Cc1ccc(-c2ccccc2-c2nnn[nH]2)cc1 [SC-51895]
- Kb [12]: 2.24 nM
- IC50 [8]: 12 nM

SMILES: CCCCC1=N[C@](C)(C2CCCCC2)C(=O)N1Cc1ccc(-c2ccccc2-c2nnn[nH]2)cc1
- IC50 [13]: 0.77 nM

SMILES: CCCCc1c(Cc2ccc(-c3ccccc3-c3nn[nH]n3)cc2)[n+]([O-])c2ccccc2[n+]1[O-]
- Ki [10]: 2.6 nM
- Kb [14]: 2.1 nM

SMILES: CCc1cc(OCc2ccc(-c3ccccc3-c3nnn[nH]3)cc2)c2ccccc2n1
- Kb [7]: 5.01 nM

SMILES: CCCc1nc(C(F)(F)C(F)(F)F)c(C(=O)O)n1Cc1ccc(-c2ccccc2-c2nn[nH]n2)cc1
- IC50 [9]: 3.1 nM

SMILES: CCc1cc(Sc2ccc(-c3ccccc3-c3nn[nH]n3)cc2)c2ncccc2n1
- IC50 [2]: 20 nM

SMILES: CCCCCc1nc(SCc2ccc(-c3ccccc3C(=O)O)cc2)nn1Cc1ccc(-c2ccccc2C(=O)O)cc1
- Kb [15]: 3.98 nM

SMILES: CCCCc1nc2ccn(CC(=O)N3CCCCC3)c(=O)c2n1Cc1ccc(-c2ccccc2S(=O)(=O)NC(=O)OCc2ccccc2)cc1F
- IC50 [1]: 3.5 nM
- Ratio IC50 [6]: 0.74
- IC50 [8]: 4.7 nM

SMILES: CCCCc1cn([C@H]2[C@H](C)CCC[C@@H]2C)c(=O)n1Cc1ccc(-c2ccccc2-c2nnn[nH]2)nc1 [SC-55634]
- Kb [12]: 0.501 nM
- IC50 [8]: 4.9 nM

SMILES: CCCCc1cn(CCCC)c(=O)n1Cc1ccc(-c2ccccc2-c2nnn[nH]2)nc1 [SC-52892]
- Kb [12]: 2.09 nM
- IC50 [8]: 6.5 nM

SMILES: CCCCc1nc2ccccc2[n+]([O-])c1Oc1ccc(-c2ccccc2-c2nn[nH]n2)cc1
- Ki [1]: 4.5 nM

SMILES: CCc1nn(Cc2ccc(-c3ccccc3-c3nn[nH]n3)cc2)/c(=N/C(=O)C2=C(C(=O)[O-])CCC2)s1.[K+]
- Ratio ED50 (Rattus norvegicus [16]): 10
- IC50 [12]: 0.4 nM

SMILES: CCCCc1nc2cccnc2n1-c1ccc(CCO/C(O)=C2\C(C(C)C)=NC(C)=C(C(=O)Nc3cccnc3)C2c2ccccc2Cl)cc1 (stereo not drawn)
- IC50 [17]: 0.6 nM

SMILES: CCOc1nc2cccc(C(=O)OC(C)OC(=O)OC3CCCCC3)c2n1Cc1ccc(-c2ccccc2-c2nnn[nH]2)cc1 (stereo not drawn) [CANDESARTAN CILEXETIL]
- ED50 (Rattus norvegicus [4]): 0.06 mg/kg
- IC50 [18]: 200 nM
- bioavailability [19]: 28%

SMILES: CCCCc1nc(Cl)c2n1C(c1ccc(-c3ccccc3-c3nnn[nH]3)cc1)CC=C2C(=O)O (stereo not drawn)
- IC50 [1]: 50 nM

SMILES: CCCCc1nc2cccnc2n1Cc1ccc(-n2cccc2-c2nnn[nH]2)cc1
- IC50 [14]: 0.6 nM
- Kb [7]: 3.55 nM
